Assay results as given in patent publication US6780616B1, “Antibiotic caprazamycins and process for producing the same” (Zaidan Hojin Biseibutsu Kagaku Kenkyu Kai Corp., priority 1999, dated 2004).
Values after ≈ are worked out from the molar mass of the structure shown.

Tests used:
[1] = test system: Mycobacterium tuberculosis H37Rv NIHJ-1633; experiment: Antibacterial spectrum, serial dilution in Middlebrook 7H9 liquid medium; assay type: cell-based; set-up: unit not given here
Method: (§1) The antibacterial spectrum of each of caprazamycins A, B, C, E and F against Mycobacterium tuberculosis, and against atypical acid-fast bacteria, Mycobacterium avium kirchberg and Mycobacterium intracellulare, were measured in a Middlebrook 7H9 liquid medium by a serial dilution method. At the same time, antibacterial spectra of rifampicin (RMP) and isonicotinic acid hydrazide (INH) (as comparative drug) against the above-mentioned acid-fast bacteria were measured by the same serial dilution method.

[2] = test system: Mycobacterium avium kirchberg NIHJ-1605; experiment: as above; assay type: cell-based; set-up: unit not given here
Method: as §1

[3] = test system: Mycobacterium intracellulare E-1 NIHJ-1618; experiment: as above; assay type: cell-based; set-up: unit not given here
Method: as §1

Mycobacterium phlei = experiment: Antibacterial spectrum, serial dilution on 1% glycerin-supplemented nutrient agar; assay type: cell-based; details: Mycolicibacterium phlei, read-out: Minimum growth inhibitory concentration
Method: (§2) The antibacterial spectrum of caprazamycin A against a variety of microorganisms were measured on a 1% glycerin-supplemented nutrient agar medium by a serial dilution method according to the standard method as provided by Japanese Society of Chemotherapy.
(§3) The antibacterial spectrum of caprazamycin B against a variety of microorganisms were measured on a 1% glycerin-supplemented nutrient agar medium by a serial dilution method according to the standard method as provided by Japanese Society of Chemotherapy.
(§4) The antibacterial spectrum of caprazamycin C against a variety of microorganisms were measured on a 1% glycerin-supplemented nutrient agar medium by a serial dilution method according to the standard method as provided by Japanese Society of Chemotherapy.
(§5) The antibacterial spectrum of caprazamycin E against a variety of microorganisms were measured on a 1% glycerin-supplemented nutrient agar medium by a serial dilution method according to the standard method as provided by Japanese Society of Chemotherapy.
(§6) The antibacterial spectrum of caprazamycin F against a variety of microorganisms were measured on a 1% glycerin-supplemented nutrient agar medium by a serial dilution method according to the standard method as provided by Japanese Society of Chemotherapy.

[4] = test system: Mycobacterium smegmatis ATCC607 CPM-R (capreomycin-resistant); experiment: as above; assay type: cell-based; details: Mycolicibacterium smegmatis, ATCC607, read-out: Minimum growth inhibitory concentration
Method: as §2, §3, §4, §5, §6

[5] = test system: Mycobacterium vaccae ATCC15483; experiment: as above; assay type: cell-based; details: Mycolicibacterium vaccae, read-out: Minimum growth inhibitory concentration
Method: as §2, §3, §4, §5, §6

[6] = test system: Mycobacterium smegmatis ATCC607; experiment: as above; assay type: cell-based; details: Mycolicibacterium smegmatis, read-out: Minimum growth inhibitory concentration
Method: as §2, §3, §4, §5, §6

[7] = test system: Mycobacterium smegmatis ATCC607 SM-R (streptomycin-resistant); experiment: as above; assay type: cell-based; details: Mycolicibacterium smegmatis, ATCC607, read-out: Minimum growth inhibitory concentration
Method: as §2, §3, §4, §5, §6

[8] = test system: Mycobacterium smegmatis ATCC607 KM-R (kanamycin-resistant); experiment: as above; assay type: cell-based; details: Mycolicibacterium smegmatis, ATCC607, read-out: Minimum growth inhibitory concentration
Method: as §2, §3, §4, §5, §6

[9] = test system: Mycobacterium smegmatis ATCC607 PM-R (paromomycin-resistant); experiment: as above; assay type: cell-based; details: Mycolicibacterium smegmatis, ATCC607, read-out: Minimum growth inhibitory concentration
Method: as §2, §3, §4, §5, §6

[10] = test system: Mycobacterium smegmatis ATCC607 ST-R (streptothricin-resistant); experiment: as above; assay type: cell-based; details: Mycolicibacterium smegmatis, ATCC607, read-out: Minimum growth inhibitory concentration
Method: as §2, §3, §4, §5, §6

[11] = test system: Mycobacterium smegmatis ATCC607 VM-R (viomycin-resistant); experiment: as above; assay type: cell-based; details: Mycolicibacterium smegmatis, ATCC607, read-out: Minimum growth inhibitory concentration
Method: as §2, §3, §4, §5, §6

[12] = test system: Mycobacterium smegmatis ATCC607 RFP-R (rifampicin-resistant); experiment: as above; assay type: cell-based; details: Mycolicibacterium smegmatis, ATCC607, read-out: Minimum growth inhibitory concentration
Method: as §2, §3, §4, §5, §6

Mycobacterium fortuitum = experiment: as above; assay type: cell-based; details: Mycolicibacterium fortuitum, read-out: Minimum growth inhibitory concentration
Method: as §2, §3, §4, §5, §6

[13] = test system: Bacillus subtilis PCI1219; experiment: Antibacterial spectrum, serial dilution on Müller-Hinton agar; assay type: cell-based; details: read-out: Minimum growth inhibitory concentration
[14] = test system: Staphylococcus aureus No.17 (methicillin-resistant); experiment: as above; assay type: cell-based; details: read-out: Minimum growth inhibitory concentration
[15] = test system: Staphylococcus aureus TY-04282 (methicillin-resistant); experiment: as above; assay type: cell-based; details: read-out: Minimum growth inhibitory concentration
[16] = test system: Bacillus subtilis NRRL B-558; experiment: as above; assay type: cell-based; details: NRRLB558, read-out: Minimum growth inhibitory concentration
[17] = test system: Staphylococcus aureus MS9610 (multiple drug-resistant); experiment: as above; assay type: cell-based; details: read-out: Minimum growth inhibitory concentration
Escherichia coli NIHJ = experiment: as above; assay type: cell-based; details: read-out: Minimum growth inhibitory concentration
Bacillus anthracis = experiment: microbe, parasite or virus in culture; assay type: cell-based; details: read-out: Minimum growth inhibitory concentration
[18] = test system: Bacillus cereus ATCC10702; experiment: Antibacterial spectrum, serial dilution on Müller-Hinton agar; assay type: cell-based; details: read-out: Minimum growth inhibitory concentration
Method: (§7) The antibacterial spectrum of caprazamycin B against a variety of microorganisms other than the microorganisms as specified in Table 2 were measured on Müller-Hinton agar medium by a serial dilution method according to the standard method as provided by Japanese Society of Chemotherapy.

[19] = test system: Micrococcus luteus PCI1001; experiment: as above; assay type: cell-based; details: read-out: Minimum growth inhibitory concentration
Method: as §7

[20] = test system: Staphylococcus aureus Smith; experiment: as above; assay type: cell-based; details: read-out: Minimum growth inhibitory concentration
Method: as §7

[21] = test system: Staphylococcus aureus FDA209P; experiment: as above; assay type: cell-based; details: read-out: Minimum growth inhibitory concentration
Method: as §7

Micrococcus luteus FDA16 = experiment: as above; assay type: cell-based; details: read-out: Minimum growth inhibitory concentration
Method: as §7

[22] = test system: Corynebacterium bovis 1810; experiment: as above; assay type: cell-based; details: read-out: Minimum growth inhibitory concentration
Method: as §7

[23] = test system: Staphylococcus aureus MS16526 (methicillin-resistant); experiment: as above; assay type: cell-based; details: read-out: Minimum growth inhibitory concentration
[24] = test system: Staphylococcus aureus No.5 (methicillin-resistant); experiment: as above; assay type: cell-based; details: read-out: Minimum growth inhibitory concentration
[25] = test system: mice (ICR type, 4 weeks-aged, male); experiment: Toxicity in mice after intravenous administration; assay type: in vivo; details: intravenously, 75 mg/kg
Description: The dose of a caprazamycin of the general formula (I) or a salt thereof as an active ingredient in the composition of this invention may depend upon the nature of bacterial infections to be treated, a purpose of the therapeutic treatment, degree of the patient's conditions and so on. However, an optimal dose of a caprazamycin can be decided by experts through suitable preliminary tests.

Compound	Minimum Inhibitory Concentration of Compound tested against Test Bacteria [1]	Minimum Inhibitory Concentration of Compound tested against Test Bacteria [2]	Minimum Inhibitory Concentration of Compound tested against Test Bacteria [3]	MIC (Mycobacterium phlei)	MIC [4]	MIC [5]	MIC [6]	MIC [7]	MIC [8]	MIC [9]	MIC [10]	MIC [11]	MIC [12]	MIC (Mycobacterium fortuitum)	further results
CCCCCCCCCCCCCC(CC(=O)OC1CN(C)C(C(OC2OC(CN)C(O)C2O)C2OC(n3ccc(=O)[nH]c3=O)C(O)C2O)C(=O)N(C)C1C(=O)O)OC(=O)CC(C)CC(=O)OC1OC(C)C(OC)C(OC)C1OC (stereo not shown) [Caprazamycin A, caprazamycin A]	1.56	<0.025	0.78	1.56 µg/mL (≈ 1.36 µM)	0.78 µg/mL (≈ 0.68 µM)	0.2 µg/mL (≈ 0.174 µM)	1.56 µg/mL (≈ 1.36 µM)	1.56 µg/mL (≈ 1.36 µM)	0.78 µg/mL (≈ 0.68 µM)	1.56 µg/mL (≈ 1.36 µM)	0.78 µg/mL (≈ 0.68 µM)	0.78 µg/mL (≈ 0.68 µM)	0.78 µg/mL (≈ 0.68 µM)	6.25 µg/mL (≈ 5.45 µM)	
COC1C(C)OC(OC(=O)CC(C)CC(=O)OC(CCCCCCCCCCC(C)C)CC(=O)OC2CN(C)C(C(OC3OC(CN)C(O)C3O)C3OC(n4ccc(=O)[nH]c4=O)C(O)C3O)C(=O)N(C)C2C(=O)O)C(OC)C1OC (stereo not shown) [Caprazamycin B, caprazamycin B]	1.56	<0.025	0.78	3.13 µg/mL (≈ 2.73 µM)	1.56 µg/mL (≈ 1.36 µM)	0.39 µg/mL (≈ 0.34 µM)	3.13 µg/mL (≈ 2.73 µM)	3.13 µg/mL (≈ 2.73 µM)	1.56 µg/mL (≈ 1.36 µM)	1.56 µg/mL (≈ 1.36 µM)	1.56 µg/mL (≈ 1.36 µM)	1.56 µg/mL (≈ 1.36 µM)	3.13 µg/mL (≈ 2.73 µM)	50 µg/mL (≈ 43.6 µM)	MIC [13]: 6.25 µg/mL (≈ 5.45 µM); MIC [14]: 6.25 µg/mL (≈ 5.45 µM); MIC [15]: 6.25 µg/mL (≈ 5.45 µM); MIC [16]: 12.5 µg/mL (≈ 10.9 µM); MIC [17]: 3.13 µg/mL (≈ 2.73 µM); MIC (Escherichia coli NIHJ): 100 µg/mL (≈ 87.2 µM); MIC (Bacillus anthracis): 0.78 µg/mL (≈ 0.68 µM); MIC [18]: 3.13 µg/mL (≈ 2.73 µM); MIC [19]: 3.13 µg/mL (≈ 2.73 µM); MIC [20]: 3.13 µg/mL (≈ 2.73 µM); MIC [21]: 1.56 µg/mL (≈ 1.36 µM); MIC (Micrococcus luteus FDA16): 3.13 µg/mL (≈ 2.73 µM); MIC [22]: 3.13 µg/mL (≈ 2.73 µM); MIC [23]: 3.13 µg/mL (≈ 2.73 µM); MIC [24]: 3.13 µg/mL (≈ 2.73 µM); Toxicity [25]: did not exhibit any toxicity
CCCCCCCCCCCCC(CC(=O)OC1CN(C)C(C(OC2OC(CN)C(O)C2O)C2OC(n3ccc(=O)[nH]c3=O)C(O)C2O)C(=O)N(C)C1C(=O)O)OC(=O)CC(C)CC(=O)OC1OC(C)C(OC)C(OC)C1OC (stereo not shown) [Caprazamycin C, caprazamycin C]	0.78	<0.025	0.78	1.56 µg/mL (≈ 1.38 µM)	1.56 µg/mL (≈ 1.38 µM)	0.39 µg/mL (≈ 0.344 µM)	1.56 µg/mL (≈ 1.38 µM)	1.56 µg/mL (≈ 1.38 µM)	0.78 µg/mL (≈ 0.689 µM)	1.56 µg/mL (≈ 1.38 µM)	1.56 µg/mL (≈ 1.38 µM)	1.56 µg/mL (≈ 1.38 µM)	1.56 µg/mL (≈ 1.38 µM)	12.5 µg/mL (≈ 11 µM)	
CCCCCCCCCCCC(CC(=O)OC1CN(C)C(C(OC2OC(CN)C(O)C2O)C2OC(n3ccc(=O)[nH]c3=O)C(O)C2O)C(=O)N(C)C1C(=O)O)OC(=O)CC(C)CC(=O)OC1OC(C)C(OC)C(OC)C1OC (stereo not shown) [Caprazamycin E, caprazamycin E]	0.78	<0.025	0.78	1.56 µg/mL (≈ 1.4 µM)	0.39 µg/mL (≈ 0.349 µM)	0.39 µg/mL (≈ 0.349 µM)	1.56 µg/mL (≈ 1.4 µM)	1.56 µg/mL (≈ 1.4 µM)	0.78 µg/mL (≈ 0.698 µM)	1.56 µg/mL (≈ 1.4 µM)	0.78 µg/mL (≈ 0.698 µM)	0.39 µg/mL (≈ 0.349 µM)	0.78 µg/mL (≈ 0.698 µM)	12.5 µg/mL (≈ 11.2 µM)	
COC1C(C)OC(OC(=O)CC(C)CC(=O)OC(CCCCCCCCC(C)C)CC(=O)OC2CN(C)C(C(OC3OC(CN)C(O)C3O)C3OC(n4ccc(=O)[nH]c4=O)C(O)C3O)C(=O)N(C)C2C(=O)O)C(OC)C1OC (stereo not shown) [Caprazamycin F, caprazamycin F]		0.1	1.56	1.56 µg/mL (≈ 1.4 µM)	0.78 µg/mL (≈ 0.698 µM)	0.78 µg/mL (≈ 0.698 µM)	1.56 µg/mL (≈ 1.4 µM)	1.56 µg/mL (≈ 1.4 µM)	0.78 µg/mL (≈ 0.698 µM)	0.78 µg/mL (≈ 0.698 µM)	0.78 µg/mL (≈ 0.698 µM)	1.56 µg/mL (≈ 1.4 µM)	0.78 µg/mL (≈ 0.698 µM)	12.5 µg/mL (≈ 11.2 µM)	
